Data from patent US20200085047A1, “Use of an Acyclic Picolinamide Compound as a Fungicide for Control of Phytopathogenic Fungi in Vegetables” (Dow AgroSciences LLC, priority 2017, published 2020).

Columns and labels:
Format in all cases: in vivo
[1] = test system: Alternaria brassicicola; test: Field assessment of Alternaria brassicicola (ALTEBI) on cabbage, 2 day protectant; conditions: 5% EC + Trycol
Source text: Field assessment of Alternaria brassicicola (ALTEBI) on cabbage:
A fungicidal treatment containing Compound I, applied in a 5% EC formulation and tank mixed with an adjuvant (Trycol, 50% w/w at 0.2% v/v), was sprayed three times on head cabbage plants (BRSOL) with the first application at 10-12 LF stage of cabbage. The following applications were done at 7 day intervals will all applications being sprayed at rates of 50, 100, and 150 grams of active ingredient per hectare (g ai/ha). The experimental plots were inoculated with black leaf spot pathogen 2 days after the first application. The treatment was part of an experimental trial designed as a randomized complete block with four replications and a plot of approximately 2×1 m, with compound I being applied at water volume of 800 L/ha.
Disease severity was assessed as the percent diseased area of cabbage bottom foliage (6 plants per plot randomly). Visual infection was assessed three times during the trial at 7 days after each application. Area under the disease progress curve (AUDPC) was calculated for each plot using the sets of recorded severity data. Relative AUDPC (% control based on AUDPC) was calculated as percent of the nontreated control.

[2] = test system: Sclerotinia sclerotiorum; test: Field assessment of Sclerotinia sclerotiorum (SCLESC) on lettuce, 2 day protectant; conditions: 5% EC + Trycol
Source text: Field Assessment of Sclerotinia sclerotiorum (SCLESC) on Lettuce:
A fungicidal treatment containing a 5% EC formulation of compound I plus an adjuvant (Trycol, 50% w/w at 0.2% v/v), was sprayed on head lettuce plants (LACSC) twice, the first application at the heading stage 36 days after planting, and the second application 7 days later. Formulations of compound I were applied at rates of 50, 100, and 150 grams of active ingredient per hectare (g ai/ha). The experimental plots were inoculated with sclerotinia rot pathogen 2 days after the first application. The treatment was part of an experimental trial designed as a randomized complete block with four replications and a plot of approximately 2×1 m, with formulations of compound I being applied at water volume of 800 L/ha.
Disease infection percentage was calculated by the equation (stem lesion lengths)/(total stem lengths)×100% per plant (6 plants per plot randomly). Sclerotinia rot infection was assessed four times, 7 days after application A (DAAA) plus 7, 14 and 21 DAAB. Area under the disease progress curve (AUDPC) was calculated for each plot using the sets of recorded visual infection data. Relative AUDPC (% control based on AUDPC) was calculated as percent of the nontreated control.

[3] = test system: Erysiphe cichoracearum; test: Field assessment of Erysiphe cichoracearum (ERYSCI) on cucumber, 2 day curative; conditions: 5% EC + Trycol
Source text: Field Assessment of Erysiphe Cichoracearum (ERYSCI) on Cucumber:
In the curative trial, a fungicidal treatment containing a 5% EC formulation of compound I plus an adjuvant (Trycol, 50% w/w at 0.2% v/v), was sprayed on cucumber plants (CUMSA) twice, the first application at the fruiting stage 29 days after planting, with the second application after 7 days. Formulations of compound I were applied at rates of 50, 100 and 150 grams of active ingredient per hectare (g ai/ha). The experimental plots were inoculated with the powdery mildew pathogen 2 days before the first application (curative). The treatment was part of an experimental trial designed as a randomized complete block with four replications and a plot of approximately 2×1 m, with formulations of compound I being applied at water volume of 1200 L/ha based on seedling sizes.
Disease severity was assessed as percent diseased area of cucumber foliage per plant (6 plants per plot randomly). Powdery mildew disease severity was assessed four times, 7 days after application A (DAAA), plus 7, 14 and 21 DAAB. Area under the disease progress curve (AUDPC) was calculated for each plot using the sets of recorded visual infection data. Relative AUDPC (% control based on AUDPC) was calculated as percent of the nontreated control.

[4] = test system: Mycovellosiella fulva; test: Field assessment of Mycovellosiella fulva (FULVFU) on tomato, curative; conditions: 10% SC; for Percent control based on AUDPC, FULVFU, adjuvant II: Agnique BP420 (50% w/w at 0.3% v/v); for Percent control based on AUDPC, FULVFU, adjuvant I: no adjuvant
Source text: Field assessment of Mycovellosiella fulva (FULVFU) on tomato:
A 10% SC formulation of compound I was tanked mixed with four different adjuvants: Agnique BP420 (50% w/w at 0.3% v/v); Trycol (50% w/w at 0.1% v/v); Ethomeen T18H (50% w/w at 0.2% v/v); and Phase II (50% w/w at 0.2% v/v). A fungicidal treatment containing formulations of compound I, either alone or with adjuvants, was sprayed on tomato plants four times, the first application approximately 3 months after planting, with the following three applications in 7-10 day intervals. Formulations of compound I were applied at rates of 50, 100, 150 and 200 grams of active ingredient per hectare (g ai/ha). The experimental plots were inoculated with the leaf mold pathogen 7 days before the first application (curative). The treatment was part of an experimental trial designed as a randomized complete block with four replications and a plot of approximately 2.5×1.4 m. Formulations of compound I were applied at water volume of 675 L/ha.
Disease severity was recorded as a percentage of visual diseased foliage (6 random plants per plot). Tomato leaf mold infection was assessed five times at 7 days after the first application (7 DAAA), 7 DAAB, 5 DAAC, followed by 7 and 12 DAAD. Area under the disease progress curve (AUDPC) was calculated for each plot using the sets of recorded severity data. Relative AUDPC (% control based on AUDPC) was calculated as percent of the nontreated control.

COc1ccnc(C(=O)N[C@@H](C)C(=O)O[C@@H](C)C(c2ccc(F)cc2)c2ccc(F)cc2)c1OC(C)=O [Compound I, (S)-1,1-bis(4-fluorophenyl)propan-2-yl (3-acetoxy-4-methoxypicolinoyl)-L-alaninate]
Percent control based on AUDPC, ALTEBI 2 DP ([1]; 50 g ai/ha): C (26-50) | Percent control based on AUDPC, ALTEBI 2 DP ([1]; 100 g ai/ha): B (51-75) | Percent control based on AUDPC, ALTEBI 2 DP ([1]; 150 g ai/ha): B (51-75) | Percent control based on AUDPC, SCLESC 2 DP ([2]; 50 g ai/ha): B (51-75) | Percent control based on AUDPC, SCLESC 2 DP ([2]; 100 g ai/ha): A (76-100) | Percent control based on AUDPC, SCLESC 2 DP ([2]; 150 g ai/ha): A (76-100) | Percent control based on AUDPC, ERYSCI 2 DC ([3]; 50 g ai/ha): A (76-100) | Percent control based on AUDPC, ERYSCI 2 DC ([3]; 100 g ai/ha): B (51-75) | Percent control based on AUDPC, ERYSCI 2 DC ([3]; 150 g ai/ha): C (26-50) | Percent control based on AUDPC, FULVFU, adjuvant II ([4]; 50 g ai/ha): A (76-100) | Percent control based on AUDPC, FULVFU, adjuvant I ([4]; 50 g ai/ha): C (26-50) | Percent control based on AUDPC, FULVFU, adjuvant II ([4]; 100 g ai/ha): A (76-100) | Percent control based on AUDPC, FULVFU, adjuvant IV ([4]; 100 g ai/ha, Ethomeen T18H (50% w/w at 0.2% v/v)): B (51-75) | Percent control based on AUDPC, FULVFU, adjuvant V ([4]; 100 g ai/ha, Phase II (50% w/w at 0.2% v/v)): A (76-100) | Percent control based on AUDPC, FULVFU, adjuvant III ([4]; 100 g ai/ha, Trycol (50% w/w at 0.1% v/v)): A (76-100) | Percent control based on AUDPC, FULVFU, adjuvant I ([4]; 100 g ai/ha): C (26-50) | Percent control based on AUDPC, FULVFU, adjuvant II ([4]; 150 g ai/ha): A (76-100) | Percent control based on AUDPC, FULVFU, adjuvant II ([4]; 200 g ai/ha): A (76-100)
